For assay [1], the target named is Ribosomal protein S6 kinase alpha-3 (Homo sapiens, UniProt P51812). As to the kind of experiment: Selectivity interaction (KinomeScan (DiscoverX)) EUB0001619a RPS6KA3. The following applies: at 1 µM.
The target of assay [2] is Protein kinase C delta type (Homo sapiens) (UniProt Q05655). As to the kind of experiment: Selectivity interaction (KinomeScan (DiscoverX)) EUB0001619a PRKCD. The following applies: at 1 µM.
Assay [3] concerns the target Ribosomal protein S6 kinase beta-2 (Homo sapiens) (UniProt Q9UBS0). Put plainly: Selectivity interaction (ActivX KiNativ screen (ex vivo kinase selectivity in human PBMCs)) EUB0001619a RPS6KB2. In kind it is cell-based. The following applies: PBMC, at 1 µM.
The target of assay [4] is Serine/threonine-protein kinase SIK1 (Homo sapiens) (UniProt P57059). Put plainly: Selectivity interaction (KinomeScan (DiscoverX)) EUB0000695a SIK1. The following applies: at 100 nM.
The target in assay [5] is T1, Interleukin-1 receptor-associated kinase 4 (Homo sapiens) (UniProt Q9NWZ3).
T1 sequence (whole entry): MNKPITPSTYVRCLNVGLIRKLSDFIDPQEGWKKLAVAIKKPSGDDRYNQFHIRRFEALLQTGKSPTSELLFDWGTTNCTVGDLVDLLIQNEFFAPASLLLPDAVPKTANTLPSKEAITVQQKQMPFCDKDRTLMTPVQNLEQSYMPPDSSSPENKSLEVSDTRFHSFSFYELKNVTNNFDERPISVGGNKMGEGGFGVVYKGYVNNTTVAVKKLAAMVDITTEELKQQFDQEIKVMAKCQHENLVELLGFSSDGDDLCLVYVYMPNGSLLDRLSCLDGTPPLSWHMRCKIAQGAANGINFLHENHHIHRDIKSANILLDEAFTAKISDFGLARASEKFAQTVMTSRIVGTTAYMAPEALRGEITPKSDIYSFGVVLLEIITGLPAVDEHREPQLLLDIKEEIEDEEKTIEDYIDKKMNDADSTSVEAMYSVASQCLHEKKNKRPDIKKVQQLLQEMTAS
The following applies: at 10 µM.

The target in assay [6] is T2, Activin receptor type-1 (Homo sapiens) (UniProt Q04771).
T2 sequence (whole entry): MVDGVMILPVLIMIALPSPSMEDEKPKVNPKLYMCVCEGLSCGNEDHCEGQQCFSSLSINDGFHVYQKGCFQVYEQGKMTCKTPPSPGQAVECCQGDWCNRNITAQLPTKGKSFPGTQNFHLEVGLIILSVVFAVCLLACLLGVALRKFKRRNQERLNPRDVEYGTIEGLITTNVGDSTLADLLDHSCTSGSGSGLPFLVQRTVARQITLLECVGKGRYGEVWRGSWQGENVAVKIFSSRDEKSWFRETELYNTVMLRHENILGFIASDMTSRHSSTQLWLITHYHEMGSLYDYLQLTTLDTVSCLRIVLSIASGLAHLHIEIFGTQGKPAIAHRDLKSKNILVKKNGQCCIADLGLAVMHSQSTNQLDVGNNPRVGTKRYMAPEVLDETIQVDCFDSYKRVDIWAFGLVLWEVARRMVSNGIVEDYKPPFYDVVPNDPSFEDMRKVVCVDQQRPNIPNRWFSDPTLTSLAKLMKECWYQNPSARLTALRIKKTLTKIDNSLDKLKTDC
The following applies: at 10 µM.

The target in assay [7] is Casein kinase II subunit alpha (Homo sapiens, UniProt P68400). As to the kind of experiment: Selectivity interaction (Kinase panel (Invitrogen)) EUB0000639a CSNK2A1. The following applies: at 200 nM.
For assay [8], the target named is Rho-associated protein kinase 1 (Homo sapiens) (UniProt Q13464). As to the kind of experiment: Selectivity interaction (ProQinase) EUB0000171b ROCK1.
A further assay concerns the target D(3) dopamine receptor (Homo sapiens, UniProt P35462). Put plainly: Selectivity interaction (GPCR panel (PDSP screen)) EUB0001079a DRD3. The following applies: at 10 µM.
The target in assay [9] is Serine/threonine-protein kinase OSR1 (Homo sapiens) (UniProt O95747). Put plainly: Selectivity interaction (KinomeScan (DiscoverX)) EUB0001079a OXSR1. The following applies: at 1 µM.
A further assay addresses Insulin receptor (Homo sapiens, UniProt P06213). Put plainly: Selectivity interaction (KinomeScan (DiscoverX)) EUB0001079a INSR. The following applies: at 1 µM.
Assay [10] has as its target T3, Serine/threonine-protein kinase Nek5 (Homo sapiens) (UniProt Q6P3R8).
T3 sequence (whole entry): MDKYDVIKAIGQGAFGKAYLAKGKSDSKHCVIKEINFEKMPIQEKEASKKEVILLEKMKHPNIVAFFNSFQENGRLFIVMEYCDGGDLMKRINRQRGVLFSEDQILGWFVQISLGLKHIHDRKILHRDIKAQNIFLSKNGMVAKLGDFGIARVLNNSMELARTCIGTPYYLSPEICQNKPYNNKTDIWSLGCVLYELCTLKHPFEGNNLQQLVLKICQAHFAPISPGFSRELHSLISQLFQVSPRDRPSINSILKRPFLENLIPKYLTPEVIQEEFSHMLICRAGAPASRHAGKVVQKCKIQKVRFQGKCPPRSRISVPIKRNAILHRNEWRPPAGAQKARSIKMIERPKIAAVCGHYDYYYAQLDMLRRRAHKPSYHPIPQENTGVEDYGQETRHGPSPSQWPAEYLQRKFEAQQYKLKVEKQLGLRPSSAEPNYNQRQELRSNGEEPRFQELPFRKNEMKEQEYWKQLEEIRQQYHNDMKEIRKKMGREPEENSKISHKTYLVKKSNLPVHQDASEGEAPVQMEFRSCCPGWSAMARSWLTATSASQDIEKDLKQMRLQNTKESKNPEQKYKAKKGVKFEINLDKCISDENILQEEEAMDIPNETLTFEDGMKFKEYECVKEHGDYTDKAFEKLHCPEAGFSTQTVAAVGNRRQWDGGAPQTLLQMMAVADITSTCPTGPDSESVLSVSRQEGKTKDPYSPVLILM
Put plainly: Selectivity interaction (KinomeScan (DiscoverX)) EUB0000229b NEK5. The following applies: at 10 µM.

Chain of Rho-associated protein kinase 1 (Homo sapiens) (Q13464 2-1354 limits assumed): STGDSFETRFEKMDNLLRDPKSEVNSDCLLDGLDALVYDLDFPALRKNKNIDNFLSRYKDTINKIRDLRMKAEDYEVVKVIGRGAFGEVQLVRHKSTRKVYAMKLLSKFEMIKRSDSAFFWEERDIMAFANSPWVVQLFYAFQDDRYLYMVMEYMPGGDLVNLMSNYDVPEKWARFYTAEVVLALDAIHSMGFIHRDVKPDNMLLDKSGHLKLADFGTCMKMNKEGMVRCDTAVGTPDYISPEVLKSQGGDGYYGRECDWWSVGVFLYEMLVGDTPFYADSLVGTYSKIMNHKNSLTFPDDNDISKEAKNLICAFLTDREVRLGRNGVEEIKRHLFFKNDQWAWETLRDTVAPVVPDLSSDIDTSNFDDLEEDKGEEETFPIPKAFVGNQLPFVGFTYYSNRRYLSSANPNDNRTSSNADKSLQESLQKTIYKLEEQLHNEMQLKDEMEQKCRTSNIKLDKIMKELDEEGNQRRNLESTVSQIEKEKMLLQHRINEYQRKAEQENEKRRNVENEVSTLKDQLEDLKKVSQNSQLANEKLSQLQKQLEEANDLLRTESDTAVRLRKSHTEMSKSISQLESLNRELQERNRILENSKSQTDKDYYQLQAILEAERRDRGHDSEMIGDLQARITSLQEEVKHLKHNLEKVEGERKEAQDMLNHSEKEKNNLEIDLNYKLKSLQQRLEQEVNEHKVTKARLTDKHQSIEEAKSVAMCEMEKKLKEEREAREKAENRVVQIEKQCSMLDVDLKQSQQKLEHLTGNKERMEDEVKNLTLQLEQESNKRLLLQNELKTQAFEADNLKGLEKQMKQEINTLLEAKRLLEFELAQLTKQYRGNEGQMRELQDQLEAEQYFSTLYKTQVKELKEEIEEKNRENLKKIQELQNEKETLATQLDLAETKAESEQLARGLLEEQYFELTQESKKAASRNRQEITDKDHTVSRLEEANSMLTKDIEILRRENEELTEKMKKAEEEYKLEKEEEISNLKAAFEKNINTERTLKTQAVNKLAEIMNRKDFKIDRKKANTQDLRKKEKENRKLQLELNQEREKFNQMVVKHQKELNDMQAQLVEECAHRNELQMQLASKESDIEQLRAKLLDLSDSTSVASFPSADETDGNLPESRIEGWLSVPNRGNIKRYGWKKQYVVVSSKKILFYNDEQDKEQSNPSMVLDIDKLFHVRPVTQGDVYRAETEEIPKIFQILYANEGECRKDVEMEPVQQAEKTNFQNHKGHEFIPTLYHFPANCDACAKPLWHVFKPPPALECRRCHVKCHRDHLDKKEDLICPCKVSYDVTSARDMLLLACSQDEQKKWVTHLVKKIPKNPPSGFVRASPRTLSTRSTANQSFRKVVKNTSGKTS
Chain of Serine/threonine-protein kinase SIK1 (Homo sapiens) (P57059 whole entry): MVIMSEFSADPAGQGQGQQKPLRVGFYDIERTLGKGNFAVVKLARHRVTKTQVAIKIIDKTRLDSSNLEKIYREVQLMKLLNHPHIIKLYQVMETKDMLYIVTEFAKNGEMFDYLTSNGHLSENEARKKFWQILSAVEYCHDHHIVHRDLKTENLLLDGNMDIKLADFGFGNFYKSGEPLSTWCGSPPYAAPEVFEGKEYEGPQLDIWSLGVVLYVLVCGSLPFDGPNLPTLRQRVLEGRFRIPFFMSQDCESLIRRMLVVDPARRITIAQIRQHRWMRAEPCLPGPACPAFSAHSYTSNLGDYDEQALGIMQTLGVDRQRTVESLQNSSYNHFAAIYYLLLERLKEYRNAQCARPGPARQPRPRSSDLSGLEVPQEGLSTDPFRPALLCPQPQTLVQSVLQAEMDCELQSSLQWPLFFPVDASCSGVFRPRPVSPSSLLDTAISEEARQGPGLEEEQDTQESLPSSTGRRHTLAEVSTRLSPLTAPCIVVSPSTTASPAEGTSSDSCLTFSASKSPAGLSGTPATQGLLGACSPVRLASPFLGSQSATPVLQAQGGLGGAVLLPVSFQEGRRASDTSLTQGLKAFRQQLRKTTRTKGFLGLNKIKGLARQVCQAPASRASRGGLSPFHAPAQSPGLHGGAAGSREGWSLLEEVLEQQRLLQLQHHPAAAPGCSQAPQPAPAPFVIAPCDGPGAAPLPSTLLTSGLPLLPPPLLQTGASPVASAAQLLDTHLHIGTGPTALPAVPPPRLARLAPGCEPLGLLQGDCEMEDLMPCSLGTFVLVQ
Chain of Casein kinase II subunit alpha (P68400 whole entry, looked up): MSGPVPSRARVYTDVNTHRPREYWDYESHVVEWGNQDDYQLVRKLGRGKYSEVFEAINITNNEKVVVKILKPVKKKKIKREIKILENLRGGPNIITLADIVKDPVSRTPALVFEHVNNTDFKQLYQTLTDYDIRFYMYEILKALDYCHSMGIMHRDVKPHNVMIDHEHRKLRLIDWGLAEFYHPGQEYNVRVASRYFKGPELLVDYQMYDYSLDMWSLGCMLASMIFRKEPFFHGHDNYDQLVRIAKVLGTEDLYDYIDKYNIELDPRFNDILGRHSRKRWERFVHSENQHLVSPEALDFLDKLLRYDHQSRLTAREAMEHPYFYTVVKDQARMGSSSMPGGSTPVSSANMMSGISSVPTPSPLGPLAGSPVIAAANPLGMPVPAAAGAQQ
Chain of Protein kinase C delta type (Homo sapiens) (Q05655 whole entry, looked up): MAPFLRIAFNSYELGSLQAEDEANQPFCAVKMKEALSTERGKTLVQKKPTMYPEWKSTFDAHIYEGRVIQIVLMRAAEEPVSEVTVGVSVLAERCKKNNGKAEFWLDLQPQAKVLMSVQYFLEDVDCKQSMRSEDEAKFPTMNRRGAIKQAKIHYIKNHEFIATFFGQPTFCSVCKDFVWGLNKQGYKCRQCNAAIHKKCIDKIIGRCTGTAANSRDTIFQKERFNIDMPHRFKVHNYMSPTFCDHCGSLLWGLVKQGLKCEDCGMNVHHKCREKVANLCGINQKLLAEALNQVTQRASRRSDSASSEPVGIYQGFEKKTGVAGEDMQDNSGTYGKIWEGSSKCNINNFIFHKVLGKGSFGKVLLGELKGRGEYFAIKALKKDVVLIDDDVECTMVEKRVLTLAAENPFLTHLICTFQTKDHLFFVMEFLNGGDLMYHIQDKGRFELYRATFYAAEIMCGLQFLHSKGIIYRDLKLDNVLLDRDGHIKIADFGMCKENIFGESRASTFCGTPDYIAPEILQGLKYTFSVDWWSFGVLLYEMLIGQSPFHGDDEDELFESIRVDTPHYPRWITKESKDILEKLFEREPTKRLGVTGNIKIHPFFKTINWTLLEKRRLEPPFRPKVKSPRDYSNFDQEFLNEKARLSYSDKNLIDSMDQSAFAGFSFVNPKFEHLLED
Chain of Ribosomal protein S6 kinase alpha-3 (P51812 whole entry): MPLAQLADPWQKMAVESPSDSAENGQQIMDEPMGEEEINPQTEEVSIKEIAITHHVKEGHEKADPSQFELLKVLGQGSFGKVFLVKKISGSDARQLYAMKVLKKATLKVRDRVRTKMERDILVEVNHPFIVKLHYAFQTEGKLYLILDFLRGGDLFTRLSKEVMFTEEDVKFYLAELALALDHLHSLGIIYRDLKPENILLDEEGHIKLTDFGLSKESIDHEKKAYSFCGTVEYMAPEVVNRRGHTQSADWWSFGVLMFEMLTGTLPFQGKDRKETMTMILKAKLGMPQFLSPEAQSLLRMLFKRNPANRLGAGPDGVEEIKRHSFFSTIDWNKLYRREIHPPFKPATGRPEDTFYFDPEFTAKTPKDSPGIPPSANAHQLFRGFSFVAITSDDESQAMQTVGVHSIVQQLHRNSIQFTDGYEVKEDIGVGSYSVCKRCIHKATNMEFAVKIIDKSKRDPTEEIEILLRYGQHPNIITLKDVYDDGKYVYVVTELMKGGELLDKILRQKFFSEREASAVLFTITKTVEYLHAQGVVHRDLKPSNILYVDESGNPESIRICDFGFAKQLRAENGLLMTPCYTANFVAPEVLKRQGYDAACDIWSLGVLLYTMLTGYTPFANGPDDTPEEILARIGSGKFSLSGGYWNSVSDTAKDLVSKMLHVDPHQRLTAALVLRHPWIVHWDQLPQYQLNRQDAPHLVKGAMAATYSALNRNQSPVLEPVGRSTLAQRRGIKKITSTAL
Chain of D(3) dopamine receptor (P35462 whole entry): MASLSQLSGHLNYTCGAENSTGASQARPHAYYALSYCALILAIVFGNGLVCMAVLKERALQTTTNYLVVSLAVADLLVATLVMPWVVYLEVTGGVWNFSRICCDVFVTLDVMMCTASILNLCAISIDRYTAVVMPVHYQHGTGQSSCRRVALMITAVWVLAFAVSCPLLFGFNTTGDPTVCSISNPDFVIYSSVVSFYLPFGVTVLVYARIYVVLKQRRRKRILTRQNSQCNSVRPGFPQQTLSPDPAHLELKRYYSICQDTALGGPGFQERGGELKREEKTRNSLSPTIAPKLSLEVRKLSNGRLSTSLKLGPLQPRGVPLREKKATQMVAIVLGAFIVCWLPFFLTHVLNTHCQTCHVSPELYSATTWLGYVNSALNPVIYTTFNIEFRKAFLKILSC
Chain of Serine/threonine-protein kinase OSR1 (Homo sapiens) (O95747 2-527 limits assumed): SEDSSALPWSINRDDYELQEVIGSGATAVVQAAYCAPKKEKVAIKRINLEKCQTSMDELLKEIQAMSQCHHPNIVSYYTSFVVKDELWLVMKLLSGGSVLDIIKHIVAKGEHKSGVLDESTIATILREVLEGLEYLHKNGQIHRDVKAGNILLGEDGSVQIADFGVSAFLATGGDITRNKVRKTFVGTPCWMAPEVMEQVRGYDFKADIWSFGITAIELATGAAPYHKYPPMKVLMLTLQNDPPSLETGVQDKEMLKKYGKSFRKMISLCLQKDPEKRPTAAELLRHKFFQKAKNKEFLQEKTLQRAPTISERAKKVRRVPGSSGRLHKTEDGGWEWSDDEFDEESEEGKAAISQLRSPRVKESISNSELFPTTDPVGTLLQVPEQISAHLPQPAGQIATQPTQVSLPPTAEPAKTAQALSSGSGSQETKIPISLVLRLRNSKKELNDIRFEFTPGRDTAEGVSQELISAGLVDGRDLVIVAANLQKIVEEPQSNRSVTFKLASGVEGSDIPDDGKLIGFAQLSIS

Regarding `N#Cc1cccc(-c2c[nH]c3ncnc(N4CCOCC4)c23)c1`, the % of control in [1] came to 46%; in assay [2], 67%. Also, the % of inhibition in assay [3] is -10%.
On to `Cc1cc(F)c(C(=O)Nc2cccc(-c3nncn3C(C)C)n2)cc1-n1cnc(C2CC2)c1`, for which the % of control in assay [4] is 94%.
`Cc1cc([C@@H](C)Nc2ccccc2C(=O)O)c2nc(N3CCOCC3)cc(=O)n2c1` [AZD-6482]: the % of control in [5] was determined as 100%; in [6], 98%.
Take `CC[C@@H]1[C@H](F)C(=O)N[C@@H]1COc1nccc2cc(C(N)=O)c(OC)cc12` [ZIMLOVISERTIB]: the % of inhibition in assay [7] was -1.15%.
For `C=CC(=O)Nc1cccc(C(=O)Nc2ccc(Nc3cc(-c4[nH]c(SC)nc4C)ccn3)cc2)c1`, the % of control in [8] (at 1 µM) came to 104%; in [8] (at 5 µM), 80%.
Regarding `Nc1cnc(N2CCc3cc(S(=O)(=O)Nc4c(F)cc(Cl)cc4F)cc(N4CCCC4=O)c32)nc1` [TP-020n], the % of inhibition at D(3) dopamine receptor amounted to 7.88%. Besides, the % of control is 75% in assay [9] and 89% at Insulin receptor.
`COc1cc(N(C)c2ccnc3ccc(C(F)(F)F)cc23)cc(OC)c1OC`: the % binding in [10] amounted to 93%.

Values taken from ChEMBL document CHEMBL5465560, “Selectivity Literature for EUbOPEN Chemogenomic Library” (2024).
